Measured values taken from patent US20260146060A1, “PHOSPHORAMIDITE CONJUGATES AND METHODS OF FORMING SYNTHETIC OLIGONUCLEOTIDES THEREFROM” (CARNEGIE MELLON UNIVERSITY, priority 2022, published 2026).

Experiments:
Beta* = assay: Hybridization with complementary DNA, native gel electrophoresis; assay type: binding; details: stoichiometric complementary DNA, temperature annealing, for Beta-SBiB2 the complementary strand is not stated
Description: (§1) Hybridization-driven self-assembly has made DNA a versatile building material for nanoscience. The sequence control over SBiB incorporation in DNA can expand the availability of DNA-initiators as new precursors for the fabrication of hybrid nanomaterials. Towards such an end, the hybridization of a mixed oligonucleotide sequence containing an internal SBiB initiator residue in the middle (Beta-SBiB1) was studied with a stoichiometric amount of complementary DNA followed by temperature annealing. For hybridization experiments, two different complementary strands to Beta-SBiB1 were used: one which was fully complementary to the Beta sequence (Beta*) and another that was fully complementary to the Beta sequence with the additional inclusion of a mismatched T residue opposite the SBiB location within the Beta sequence (Beta*Tmm). Beta*Tmm was used to evaluate if the single T residue opposite the 3 carbons insert of SBiB could reduce the strain during duplex formation.
(§2) Double-stranded DNA preparation and melting curve analysis. Desired single-stranded DNA (Beta or Beta-SBiB) was mixed with a stoichiometric amount of complementary DNA (Beta* or Beta*Tmm) at a final concentration of 20 μM in 1×PBS. The DNA mixture was placed in a heat block at 95° C. for 5 min. Following the heating process, the heat block was turned off and slowly cooled to room temperature (approx. 0.5° C./min). […]

Beta*Tmm = assay: Hybridization with complementary DNA carrying a mismatched T, native gel electrophoresis; assay type: binding; details: stoichiometric complementary DNA, temperature annealing
Description: as §1, §2

[1] = Stability assay in 10% FBS (gel electrophoresis of remaining DNA); details: 37° C., 5.3 μM; for time until entirely degraded: 10% FBS and 1X PBS

Beta-SBiB1: ACG TCG AGC AGT /i/ CAG AGC TGT, i = SBiB residue
hybridization (duplex formation) (Beta*): successfully hybridize | hybridization (duplex formation) (Beta*Tmm): successfully hybridize

Beta-SBiB3: /i/ ACG TCG AGC AGT /i/ CAG AGC TG /i/ T
degradation ([1]; 10% FBS, after 24 hours): 46%

unmodified Beta DNA: purchased 21-mer DNA, ACGTCGAGCAGTCAGAGCTGT (DNA ACGTCGAGCAGTCAGAGCTGT; unmodified DNA)
time until entirely degraded ([1]; in the absence of free pOEOMA): ≤ 12 h | time until entirely degraded ([1]; in the presence of free pOEOMA in the supernatant): ≤ 12 h
